Tested on: platelet ADP receptors
Test: ARB binding assay (platelet ADP receptor binding, [3H]2-MeS-ADP)
Design: species or system human
Settings: relative activities of selected compounds in the ARB binding assay
Procedure: Utilizing the second assay the potency of inhibition of such compounds with respect to [^3H]2-MeS-ADP binding to whole platelets is determined. [^3H]2-MeS-ADP binding experiments are routinely performed with outdated human platelets collected by standard procedures at hospital blood banks. Apyrase-washed outdated platelets are prepared as follows (all steps at room temperature, if not indicated otherwise):
Outdated platelet suspensions are diluted with 1 volume of CGS and platelets pelleted by centrifugation at 1900×g for 45 minutes. Platelet pellets are resuspended at 3–6×10^9 platelets/ml in CGS containing 1 U/ml apyrase (grade V, Sigma, St. Louis, Mo.) and incubated for 15 minutes at 37° C. After centrifugation at 730×g for 20 minutes, pellets are resuspended in Hepes-Tyrode's buffer containing 0.1% BSA (Sigma, St. Louis, Mo.) at a concentration of 6.66×10^8 platelets/ml. Binding experiments are performed after >45 minutes resting of the platelets.
Alternatively, binding experiments are performed with fresh human platelets prepared as described in I.(Inhibition of ADP-Mediated Platelet Aggregation in vitro), except that platelets are resuspended in Hepes-Tyrode's buffer containing 0.1% BSA (Sigma, St. Louis, Mo.) at a concentration of 6.66×10^8 platelets/ml. Very similar results are obtained with fresh and outdated platelets.
A platelet ADP receptor binding assay using the tritiated potent agonist ligand [^3H]2-MeS-ADP (Jantzen, H. M. et al. (1999) Thromb. Hemost. 81:111–117) has been adapted to the 96-well microtiter format. In an assay volume of 0.2 ml Hepes-Tyrode's buffer with 0.1% BSA and 0.6% DMSO, 1×10^8 apyrase-washed platelets are preincubated in 96-well flat bottom microtiter plates for 5 minutes with serial dilutions of test compounds before addition of 1 nM [^3H]2-MeS-ADP ([^3H]2-methylthioadenosine-5′-diphosphate, ammonium salt; specific activity 48–49 Ci/mmole, obtained by custom synthesis from Amersham Life Science, Inc., Arlington Heights, Ill., or NEN Life Science Products, Boston, Mass.). Total binding is determined in the absence of test compounds. Samples for nonspecific binding may contain 10^−5 M unlabelled 2-MeS-ADP (RBI, Natick, Mass.). After incubation for 15 minutes at room temperature, unbound radioligand is separated by rapid filtration and two washes with cold (4–8° C.) Binding Wash Buffer (10 mM Hepes pH 7.4, 138 mM NaCl) using a 96-well cell harvester (Minidisc 96, Skatron Instruments, Sterling, Va.) and 8×12 GF/C glassfiber filtermats (Printed Filtermat A, for 1450 Microbeta, Wallac Inc., Gaithersburg, Md.). The platelet-bound radioactivity on the filtermats is determined in a scintillation counter (Microbeta 1450, Wallac Inc., Gaithersburg, Md.). Specific binding is determined by subtraction of non-specific binding from total binding, and specific binding in the presence of test compounds is expressed as % of specific binding in the absence of test compounds dilutions.

| Compound | Relative Activity |
| --- | --- |
| CCc1cc2c(N3CCN(C(=O)[C@H](C)c4ccccc4)CC3)ncnc2s1 [Example 349, 1-[4-(6-Ethyl-thieno[2,3-d]pyrimidin-4-yl)-piperazin-1-yl]-2-phenyl-propan-1-one] | + (>20 micromolar) |
| CCc1cc2c(N3CCN(C(=O)c4ccncc4)CC3)ncnc2s1 [Example 362, [4-(6-Ethyl-thieno[2,3-d]pyrimidin-4-yl)-piperazin-1-yl]-pyridin-4-yl-methanone] | + (>20 micromolar) |
| CCc1cc2c(N3CCN(C(=O)CCCn4nnc5ccccc54)CC3)ncnc2s1 [Example 372, 4-Benzotriazol-1-yl-1-[4-(6-Ethyl-thieno[2,3-d]pyrimidin-4-yl)-piperazin-1-yl]-butan-1-one] | ++ (10–20 micromolar) |
| CCc1cc2c(N3CCN(C(=O)CCC(=O)OC)CC3)ncnc2s1 [Example 384, 4-[4-(6-Ethyl-thieno[2,3-d]pyrimidin-4-yl)-piperazin-1-yl]-4-oxo-butyric acid methyl ester] | + (>20 micromolar) |
| CCc1cc2c(N3CCN(C(=O)CCCC(=O)O)CC3)ncnc2s1 [Example 390, 5-[4-(6-Ethyl-thieno[2,3-d]pyrimidin-4-yl)-piperazin-1-yl]-5-oxo-pentanoic acid] | + (>20 micromolar) |
| CCc1cc2c(N3CCN(C(=O)CCCCC#N)CC3)ncnc2s1 [Example 395, 6-[4-(6-Ethyl-thieno[2,3-d]pyrimidin-4-yl)-piperazin-1-yl]-6-oxo-hexanenitrile] | + (>20 micromolar) |
| CCc1cc2c(N3CCN(C(=O)c4ccc(-c5ccccc5)s4)CC3)ncnc2s1 [Example 408, [4-(6-Ethyl-thieno[2,3-d]pyrimidin-4-yl)-piperazin-1-yl]-(5-phenyl-thiophen-2-yl)-methanone] | ++ (10–20 micromolar) |
| CCc1cc2c(N3CCN(C(=O)CCCSc4nccn4-c4ccccc4)CC3)ncnc2s1 [Example 429, 1-[4-(6-Ethyl-thieno[2,3-d]pyrimidin-4-yl)-piperazin-1-yl]-4-(1-phenyl-1H-imidazol-2-ylsulfanyl)-butan-1-one] | + (>20 micromolar) |
| CCc1cc2c(N3CCN(C(=O)CCCNc4ncccn4)CC3)ncnc2s1 [Example 430, 1-[4-(6-Ethyl-thieno[2,3-d]pyrimidin-4-yl)-piperazin-1-yl]-4-(pyrimidin-2-ylamino)-butan-1-one] | + (>20 micromolar) |
| CCc1cc2c(N3CCN(C(=O)C(c4ccccc4)N4CCNCC4)CC3)ncnc2s1 (centres unmarked) [Example 432, 1-[4-(6-Ethyl-thieno[2,3-d]pyrimidin-4-yl)-piperazin-1-yl]-2-phenyl-2-piperazin-1-yl-ethanone] | + (>20 micromolar) |
| CCc1cc2c(N3CCN(C(=O)c4ccc5ccccc5n4)CC3)ncnc2s1 [Example 453, [4-(6-Ethyl-thieno[2,3-d]pyrimidin-4-yl)-piperazin-1-yl]-quinolin-2-yl-methanone] | + (>20 micromolar) |

Reference: patent US7115741B2, “4-thieno[2,3-D]pyrimidin-4-YL piperazine compounds” (priority 2001, dated 2006)
